Assay: Room temperature storage of ketorolac formulated at different pH
Assay type: physicochemical
Conditions: formulated with a pH of less than 5 or greater than 9

For `O=C(c1ccccc1)c1ccc2n1CCC2C(=O)O` (stereo not shown) [ketorolac, Ketorolac], which “degradation when stored at room temperature” value is on record?
Its value is “would degrade”.
